# Assay results taken from EP1981504B1, “THIADIAZOLE DERIVATIVES FOR THE TREATMENT OF NEURO DEGENERATIVE DISEASES” (NV reMYND, priority 2006, dated 2007).
# Test system: M17-SYNwt cells
# Assay: α-synuclein cytotoxicity assay (LDH leakage from paraquat-treated α-synuclein over-expressing neuroblastoma cells)
# Type: cell-based, human
# Details: paraquat 32 mM, 40 hours, LDH release; for %I: percent inhibition of synuclein cytotoxicity at most effective concentration of test compound, relative to untreated paraquat cells; for EC50: Homo sapiens, Neuroblastoma cell, 10 point curves in duplicate
# Method: Subsequently, LDH activity was determined using Promega Cytotox 96 NonRadioactive cytotoxicity assay, (Cat. G1780) according the supplier's instructions.
# This corresponds to the following equation: (LDHreleaseoftreatedparaquatcellsatnon-effectiveconcentrationoftestcmpd)−(LDHreleaseoftreatedparaquatcellsatmosteffectiveconcentrationoftestcmpd)/(LDHreleaseofuntreatedparaquatcells)−(LDHreleasecontrolcells)*100% [formula]
# 1,2,4-thiadazole compounds made according to the methods described herein were screened for activity using the α-synuclein cytotoxicity assay as described above. Dose responses were carried out on all compounds found to be active (10 point curves in duplicate).
SMILES,%I [%],EC50 [µg/mL]
"O=C(Nc1ccc(F)c(F)c1)N1CCN(c2nc(Cc3ccc(F)cc3)ns2)CC1 [Compound 28, N-(3,4-difluorophenyl)-4-[3-(4-fluorobenzyl)-1,2,4-thiadiazol-5-yl]piperazine-1-carboxamide]",64,–
"COc1cc(NC(=O)N2CCN(c3nc(Cc4ccc(F)cc4)ns3)CC2C)cc(OC)c1 (centres unmarked) [Compound 29, N-(3,5-dimethoxyphenyl)-4-[3-(4-fluorobenzyl)-1,2,4-thiadiazol-5-yl]-2-methylpiperazine-1-carboxamide]",51,–
"CC(C)(C)c1ccc(S(=O)(=O)N2CCN(c3nc(Cc4ccc(F)cc4)ns3)CC2)cc1 [Compound 30, 1-[4-tert-butylphenylsulfonyl]-4-[3-(4-fluorobenzyl)-1,2,4-thiadiazol-5-yl]piperazine]",51,–
"COc1ccc(S(=O)(=O)N2CCN(c3nc(Cc4ccc(Cl)cc4)ns3)CC2)cc1 [Compound 31, 1-[4-methoxyphenylsulfonyl]-4-[3-(4-chlorobenzyl)-1,2,4-thiadiazol-5-yl]piperazine]",59,0.000169
"COc1ccc(S(=O)(=O)N2CCN(c3nc(Cc4ccc(F)cc4)ns3)CC2)cc1 [Compound 32, 1-[4-methoxyphenylsulfonyl]-4-[3-(4-fluorobenzyl)-1,2,4-thiadiazol-5-yl]piperazine]",78,0.0024
"O=S(=O)(c1ccc(F)cc1)N1CCN(c2nc(Cc3ccc(Cl)cc3)ns2)CC1 [Compound 33, 1-[4-fluorophenylsulfonyl]-4-[3-(4-chlorobenzyl)-1,2,4-thiadiazol-5-yl]piperazine]",53,0.00282
"Cc1ccc(Cc2nsc(N3CCN(S(=O)(=O)c4ccc(Cl)cc4)C(C)C3)n2)cc1 (centres unmarked) [Compound 34, 1-[4-chlorophenylsulfonyl]-4-[3-(4-methylbenzyl)-1,2,4-thiadiazol-5-yl]-2-methylpiperazine]",66,0.0657
"Cc1ccc(Cc2nsc(N3CCN(S(=O)(=O)c4cccc5ccccc45)CC3)n2)cc1 [Compound 35, 1-[1-naphtylsulfonyl]-4-[3-(4-methylbenzyl)-1,2,4-thiadiazol-5-yl]piperazine]",47,0.0472
"Cc1ccc(Cc2nsc(N3CCN(S(=O)(=O)c4cc(Cl)ccc4Cl)C(C)C3)n2)cc1 (centres unmarked) [Compound 36, 1-[2,5-dichlorophenylsulfonyl]-4-[3-(4-methylbenzyl)-1,2,4-thiadiazol-5-yl]-2-methylpiperazine]",52,0.1
"Cc1ccc(Cc2nsc(N3CCN(S(=O)(=O)c4c(C)cc(C)cc4C)CC3)n2)cc1 [Compound 37, 1-[2,4,6-trimethylphenylsulfonyl]-4-[3-(4-methylbenzyl)-1,2,4-thiadiazol-5-yl]piperazine]",48,0.0731
"Cc1ccc(Cc2nsc(N3CCN(S(=O)(=O)c4ccc5ccccc5c4)C(C)C3)n2)cc1 (centres unmarked) [Compound 38, 1-[2-naphtylsulfonyl]-4-[3-(4-methylbenzyl)-1,2,4-thiadiazol-5-yl]-2-methylpiperazine]",78,0.13
"O=S(=O)(c1cc(Cl)ccc1Cl)N1CCN(c2nc(Cc3ccc(Cl)cc3)ns2)CC1 [Compound 39, 1-[2,5-dichlorophenylsulfonyl]-4-[3-(4-chlorobenzyl)-1,2,4-thiadiazol-5-yl]piperazine]",25,0.16
Cc1ccc(Cc2nsc(N3CCN(S(=O)(=O)c4cccc5ccccc45)C(C)C3)n2)cc1 (centres unmarked) [Compound 41],54,0.53
"Cc1ccc(Cc2nsc(N3CCN(S(=O)(=O)c4ccc(C(C)(C)C)cc4)C(C)C3)n2)cc1 (centres unmarked) [Compound 42, 1-[4-tert-butylphenylsulfonyl]-4-[3-(4-methylbenzyl)-1,2,4-thiadiazol-5-yl]-2-methylpiperazine]",33,0.87
"CC1CN(c2nc(Cc3ccc(Cl)cc3)ns2)CCN1S(=O)(=O)c1cccc2ccccc12 (centres unmarked) [Compound 43, 1-[1-naphtylsulfonyl]-4-[3-(4-chlorobenzyl)-1,2,4-thiadiazol-5-yl]-2-methylpiperazine]",35,0.89
"COc1cccc(S(=O)(=O)N2CCN(c3nc(Cc4ccc(F)cc4)ns3)CC2)c1 [Compound 44, 1-[3-methoxyphenylsulfonyl]-4-[3-(4-fluorobenzyl)-1,2,4-thiadiazol-5-yl]piperazine]",99,0.0571
"Cc1ccc(Cc2nsc(N3CCN(S(=O)(=O)c4c(C)cc(C)cc4C)C(C)C3)n2)cc1 (centres unmarked) [Compound 45, 1-[2,4,6-trimethylphenylsulfonyl]-4-[3-(4-methylbenzyl)-1,2,4-thiadiazol-5-yl]-2-methylpiperazine]",56,1.2

SMILES,%I [%],EC50 [µg/mL]
"CC1CN(c2nc(Cc3ccc(F)cc3)ns2)CCN1S(=O)(=O)c1ccccc1 (centres unmarked) [Compound 47, 1-phenylsulfonyl-4-[3-(4-fluorobenzyl)-1,2,4-thiadiazol-5-yl]-2-methylpiperazine]",129,–
"CC(=O)Nc1ccc(S(=O)(=O)N2CCN(c3nc(Cc4ccc(C)cc4)ns3)CC2C)cc1 (centres unmarked) [Compound 48, 1-[4-acetamidophenylsulfonyl]-4-[3-(4-methylbenzyl)-1,2,4-thiadiazof-5-yl]-2-methylpiperazine]",91,0.00844
"CC(=O)Nc1ccc(S(=O)(=O)N2CCN(c3nc(Cc4ccc(C)cc4)ns3)CC2)cc1 [Compound 49, 1-[4-acetamidophenylsulfonyl]-4-[3-(4-methylbenzyl)-1,2,4-thiadiazol-5-yl]piperazine]",77,0.000106
"Cc1ccc(Cc2nsc(N3CCN(S(=O)(=O)c4ccc(C)cc4)C(C)C3)n2)cc1 (centres unmarked) [Compound 50, 1-[4-methylphenylsulfonyl]-4-[3-(4-methylbenzyl)-1,2,4-thiadiazol-5-yl]-2-methylpiperazine]",105,–
"COc1ccc(S(=O)(=O)N2CCN(c3nc(Cc4ccc(Cl)cc4)ns3)CC2C)cc1 (centres unmarked) [Compound 51, 1-[4-methoxyphenylsulfonyl]-4-[3-(4-chlorobenzyl)-1,2,4-thiadiazol-5-yl]-2-methylpiperazine]",94,0.00135
"O=S(=O)(c1ccc2ccccc2c1)N1CCN(c2nc(Cc3ccc(Cl)cc3)ns2)CC1 [Compound 52, 1-[2-naphtylsulfonyl]-4-[3-(4-chlorobenzyl)-1,2,4-thiadiazol-5-yl]piperazine]",104,0.1
"CC1CN(c2nc(Cc3ccc(F)cc3)ns2)CCN1S(=O)(=O)c1ccc(C(C)(C)C)cc1 (centres unmarked) [Compound 54, 1-[4-tert-butylphenylsulfonyl]-4-[3-(4-fluorobenzyl)-1,2,4-thiadiazol-5-yl]-2-methylpiperazine]",60,–
"CC(=O)Nc1ccc(S(=O)(=O)N2CCN(c3nc(Cc4ccc(F)cc4)ns3)CC2C)cc1 (centres unmarked) [Compound 55, 1-[4-acetamidophenylsulfonyl]-4-[3-(4-fluorobenzyl)-1,2,4-thiadiazol-5-yl]-2-methylpiperazine]",114,0.0781
"Cc1ccc(Cc2nsc(N3CCN(S(=O)(=O)c4cccc(C(F)(F)F)c4)C(C)C3)n2)cc1 (centres unmarked) [Compound 56, 1-[3-trifluoromethylphenylsulfonyl]-4-[3-(4-methylbenzyl)-1,2,4-thiadiazol-5-yl]-2-methylpiperazine]",87,–
"Cc1ccc(Cc2nsc(N3CCN(S(=O)(=O)c4ccc(F)cc4)CC3)n2)cc1 [Compound 57, 1-[4-fluorophenylsulfonyl]-4-[3-(4-methylbenzyl)-1,2,4-thiadiazol-5-yl]piperazine]",88,0.0104
"Cc1ccc(Cc2nsc(N3CCN(S(=O)(=O)c4ccc(F)cc4)C(C)C3)n2)cc1 (centres unmarked) [Compound 58, 1-[4-fluorophenylsulfonyl]-4-[3-(4-methylbenzyl)-1,2,4-thiadiazol-5-yl]-2-methylpiperazine]",58,0.061
"CC1CN(c2nc(Cc3ccc(F)cc3)ns2)CCN1S(=O)(=O)c1ccc(F)cc1 (centres unmarked) [Compound 59, 1-[4-fluorophenylsulfonyl]-4-[3-(4-fluorobenzyl)-1,2,4-thiadiazol-5-yl]-2-methylpiperazine]",42,–
"COc1ccc(S(=O)(=O)N2CCN(c3nc(Cc4ccc(C)cc4)ns3)CC2C)cc1 (centres unmarked) [Compound 60, 1-[4-methoxyphenylsulfonyl]-4-[3-(4-methylbenzyl)-1,2,4-thiadiazol-5-yl]-2-methylpiperazine]",93,0.0013
"CC(C)(C)c1ccc(S(=O)(=O)N2CCN(c3nc(Cc4ccc(F)cc4)ns3)CC2)cc1 [Compound 61, 1-[4-ter-butylphenylsulfonyl]-4-[3-(4-fluorobenzyl)-1,2,4-thiadiazol-5-yl]piperazine]",47,–
"Cc1ccc(Cc2nsc(N3CCN(S(=O)(=O)c4cccc(C(F)(F)F)c4)CC3)n2)cc1 [Compound 62, 1-[3-trifluoromethylphenylsulfonyl]-4-[3-(4-methylbenzyl)-1,2,4-thiadiazol-5-yl]piperazine]",45,–
"Cc1ccc(S(=O)(=O)N2CCN(c3nc(Cc4ccc(Cl)cc4)ns3)CC2)cc1 [Compound 63, 1-[4-methylphenylsulfonyl]-4-[3-(4-chlorobenzyl)-1,2,4-thiadiazol-5-yl]piperazine]",83,0.0807
